According to patent US9062041B2 (Bayer Intellectual Property GmbH, priority 2011, dated 2015):

Columns and labels:
Format in all cases: cell-based
[1] = biological target: EP2 subtype of the human PGE2 receptor (Homo sapiens, UniProt P43116); experiment: cAMP antagonism test on the human EP2 receptor (HTRF cAMP detection); conditions: hEP2 receptor, read-out: Antagonism hEP2 IC50
Outline: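 Read-out is a competitive HTRF for cAMP: lysate cAMP displaces cAMP-d2 from Eu cryptate-labelled antibody, and antagonism raises the 665/620 nm ratio. Compound (0.8 nM–16.5 μM) added to EP2 cells 20 min at RT before 60 min PGE2 challenge (3× stock 1.5 nM) with IBMX, followed by 20 min lysis.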

[2] = biological target: T1, human PGD receptor (Homo sapiens, UniProt Q13258); experiment: cAMP antagonism test on the human prostaglandin D receptor (HTRF cAMP detection); conditions: selectivity towards hDP, IC50 measured by cAMP antagonism test
T1 sequence (Q13258 1-359): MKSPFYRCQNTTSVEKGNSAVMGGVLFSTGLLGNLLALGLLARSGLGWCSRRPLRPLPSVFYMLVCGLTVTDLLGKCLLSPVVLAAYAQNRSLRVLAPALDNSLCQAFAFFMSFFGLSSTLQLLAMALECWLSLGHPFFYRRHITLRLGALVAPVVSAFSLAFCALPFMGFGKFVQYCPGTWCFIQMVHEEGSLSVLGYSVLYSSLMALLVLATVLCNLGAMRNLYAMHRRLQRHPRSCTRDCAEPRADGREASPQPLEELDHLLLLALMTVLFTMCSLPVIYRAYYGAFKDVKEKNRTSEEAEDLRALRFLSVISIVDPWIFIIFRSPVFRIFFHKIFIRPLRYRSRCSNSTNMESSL
Outline: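 HTRF competition read-out (665/620 nm ratio ×10000), where higher FRET means less cAMP, i.e. antagonism. Compounds (0.8 nM–16.5 μM) were preincubated 20 min at RT with cells and cAMP-d2, PGD2 (3× solution, 6 nM) in IBMX-containing PBS added for 30 min at RT, then cells lysed 20 min.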

[3] = biological target: EP4 subtype of the human PGE2 receptor (Homo sapiens, UniProt P35408); experiment: cAMP antagonism test on the human EP4 receptor (HTRF cAMP detection); conditions: selectivity towards hEP4, IC50 measured by cAMP antagonism test
Outline: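 Competitive HTRF cAMP read-out (cAMP-d2 vs Eu-cryptate anti-cAMP antibody, 665/620 nm ratio) on lysed human EP4 cells. Compound (0.8 nM–16.5 μM) applied 20 min at RT before 60 min PGE2 challenge (3× solution 0.3 nM, IBMX present); 20 min lysis precedes reading.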

Sequence of EP4 subtype of the human PGE2 receptor (P35408 whole entry): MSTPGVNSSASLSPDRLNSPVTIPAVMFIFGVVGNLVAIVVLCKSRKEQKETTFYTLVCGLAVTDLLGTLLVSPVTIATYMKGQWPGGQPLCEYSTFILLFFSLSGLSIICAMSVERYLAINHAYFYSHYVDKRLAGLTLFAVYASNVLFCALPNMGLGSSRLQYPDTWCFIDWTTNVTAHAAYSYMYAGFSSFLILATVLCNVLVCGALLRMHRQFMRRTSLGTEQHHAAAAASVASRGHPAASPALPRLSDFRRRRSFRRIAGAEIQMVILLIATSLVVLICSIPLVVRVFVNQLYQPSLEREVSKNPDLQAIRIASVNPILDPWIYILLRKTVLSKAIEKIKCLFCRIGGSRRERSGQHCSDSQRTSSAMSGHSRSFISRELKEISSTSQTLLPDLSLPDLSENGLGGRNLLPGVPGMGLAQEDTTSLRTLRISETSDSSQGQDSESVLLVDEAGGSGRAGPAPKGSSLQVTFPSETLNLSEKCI
Sequence of EP2 subtype of the human PGE2 receptor (P43116 whole entry): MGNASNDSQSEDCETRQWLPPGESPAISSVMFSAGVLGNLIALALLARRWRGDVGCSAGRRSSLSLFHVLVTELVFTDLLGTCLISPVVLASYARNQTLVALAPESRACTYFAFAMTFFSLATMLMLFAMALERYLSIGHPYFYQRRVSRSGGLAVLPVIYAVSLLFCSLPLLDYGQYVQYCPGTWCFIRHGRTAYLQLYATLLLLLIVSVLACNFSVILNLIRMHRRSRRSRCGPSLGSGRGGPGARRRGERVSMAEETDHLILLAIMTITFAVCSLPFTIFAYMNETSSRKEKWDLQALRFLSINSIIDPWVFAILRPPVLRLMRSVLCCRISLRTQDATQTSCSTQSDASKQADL

| SMILES | IC50 [1] | Selectivity hEP2/hDP [2] | Selectivity hEP2/hEP4 [3] |
| --- | --- | --- | --- |
| Cc1c(C(=O)NCC2CC2)ccc2nn(CC3CCN(C(=O)c4ccc(Oc5ccc(C(F)(F)F)cc5)cc4)CC3)cc12 [Example 406, N-(cyclopropylmethyl)-4-methyl-2-[(1-{4-[4-(trifluoromethyl)phenoxy]-benzoyl}piperidin-4-yl)methyl]-2H-indazol-5-carboxamide] | 8.19 nM | xxx (xxx > 100) | xxx (xxx > 100) |
| COCCNC(=O)c1cc2cn(CC3CCN(C(=O)c4ccc(C(F)(F)F)cc4)CC3)nc2cc1C [Example 211, N-(2-methoxyethyl)-6-methyl-2-({1-[4-(trifluoromethyl)benzoyl]piperidin-4-yl}-methyl)-2H-indazol-5-carboxamide] | 50.1 nM | xxx (xxx > 100) | xxx (xxx > 100) |
| COCCNC(=O)c1cc2cn(CC3CN(C(=O)c4ccc(Oc5ccc(C(F)(F)F)cc5)cc4)C3)nc2cc1C [Example 202, N-(2-methoxyethyl)-6-methyl-2-[(1-{4-[4-(trifluoromethyl)phenoxy]benzoyl}-azetidin-3-yl)methyl]-2H-indazol-5-carboxamide] | 5.06 nM | xxx (xxx > 100) | xxx (xxx > 100) |
| COCCNC(=O)c1ccc2nn(CC3CCN(C(=O)c4ccc(-c5ccc(OC)cc5)cc4F)CC3)cc2c1C [Example 43, 2-({1-[(3-fluoro-4′-methoxybiphenyl-4-yl)carbonyl]piperidin-4-yl}methyl)-N-(2-methoxyethyl)-4-methyl-2H-indazol-5-carboxamide] | 4.82 nM | xxx (xxx > 100) | xxx (xxx > 100) |
| COc1ccc(-c2ccc(C(=O)N3CCC(Cn4cc5c(C)c(C(=O)NCC(F)(F)F)ccc5n4)CC3)cc2)cn1 [Example 322, 2-({1-[4-(6-methoxypyridin-3-yl)benzoyl]piperidin-4-yl}methyl)-4-methyl-N-(2,2,2-trifluoroethyl)-2H-indazol-5-carboxamide] | 76.2 nM | xxx (xxx > 100) | xxx (xxx > 100) |
| Cc1c(C(=O)NCC#N)ccc2nn(CC3CCN(C(=O)c4ccc(Oc5ccc(C(F)(F)F)cc5)cc4)CC3)cc12 [Example 247, N-(cyanomethyl)-4-methyl-2-[(1-{4-[4-(trifluoromethyl)phenoxy]benzoyl}piperidin-4-yl)methyl]-2H-indazol-5-carboxamide] | 12.6 nM | xxx (xxx > 100) | xxx (xxx > 100) |
| Cc1c(C(=O)NCC(F)(F)F)ccc2nn(CC3CCN(C(=O)c4ccc(N5CCOCC5)cc4)CC3)cc12 [Example 287, 4-methyl-2-{[1-(4-morpholinobenzoyl)piperidin-4-yl]methyl}-N-(2,2,2-trifluoro-ethyl)-2H-indazol-5-carboxamide] | 1050 nM | xx (xx: 10-100) | xx (xx: 10-100) |
| COCCNC(=O)c1ccc2nn(CC3CCN(C(=O)c4ccc(C(F)(F)F)cc4F)CC3)cc2c1C [Example 10, 2-({1-[2-fluoro-4-(trifluoromethyl)benzoyl]piperidin-4-yl}methyl)-N-(2-methoxy-ethyl)-4-methyl-2H-indazol-5-carboxamide] | 8.67 nM | xxx (xxx > 100) | xxx (xxx > 100) |
| Cc1c(C(=O)NCC(F)(F)F)ccc2nn(CC3CCN(C(=O)c4nc(-c5ccccc5)no4)CC3)cc12 [Example 305, 4-methyl-2-({1-[(3-phenyl-1,2,4-oxadiazol-5-yl)carbonyl]piperidin-4-yl}methyl)-N-(2,2,2-trifluoroethyl)-2H-indazol-5-carboxamide] | 301 nM | xx (xx: 10-100) | xx (xx: 10-100) |
